Experimental data published in US11912693B2, “Compounds for modulating S1P1 activity and methods of using the same” (TREVENA, INC., priority 2017, dated 2024).

Experiments:
[1] = biological target: T1, human sphingosine-1-phosphate receptor 1 (S1P1) (Homo sapiens (Human), UniProt P21453); experiment: β-Arrestin2 recruitment assay (PathHunter), S1P1 CHO-K1 cells; assay type: cell-based; conditions: for Emax: CHO-K1, efficacy (SPAN) normalized to fingolimod, read-out: hS1P1 B-arrestin2 SPAN
Summary of the method: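 Enzyme-fragment complementation read-out: agonist-driven β-arrestin2 binding to ProLink-tagged human S1P1 in stable CHO-K1 cells restores β-galactosidase, measured 1 h at room temperature after a 60 min 37° C. compound incubation. Potency as pEC50, efficacy relative to fingolimod (SPAN).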
Target sequence in this assay (P21453 whole entry, looked up, the tested form may be a part): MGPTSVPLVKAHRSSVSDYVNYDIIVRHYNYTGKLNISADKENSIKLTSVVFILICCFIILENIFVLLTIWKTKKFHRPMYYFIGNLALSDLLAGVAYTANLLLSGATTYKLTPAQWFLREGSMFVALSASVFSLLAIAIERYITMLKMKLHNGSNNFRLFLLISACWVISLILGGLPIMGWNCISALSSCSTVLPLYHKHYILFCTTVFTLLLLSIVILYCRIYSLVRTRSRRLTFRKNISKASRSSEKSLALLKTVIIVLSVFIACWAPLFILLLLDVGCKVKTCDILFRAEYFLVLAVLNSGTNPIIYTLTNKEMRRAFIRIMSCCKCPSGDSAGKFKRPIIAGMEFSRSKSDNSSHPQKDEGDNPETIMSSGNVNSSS
Target sequence in this assay (P32121 whole entry partner, looked up, the tested form may be a part): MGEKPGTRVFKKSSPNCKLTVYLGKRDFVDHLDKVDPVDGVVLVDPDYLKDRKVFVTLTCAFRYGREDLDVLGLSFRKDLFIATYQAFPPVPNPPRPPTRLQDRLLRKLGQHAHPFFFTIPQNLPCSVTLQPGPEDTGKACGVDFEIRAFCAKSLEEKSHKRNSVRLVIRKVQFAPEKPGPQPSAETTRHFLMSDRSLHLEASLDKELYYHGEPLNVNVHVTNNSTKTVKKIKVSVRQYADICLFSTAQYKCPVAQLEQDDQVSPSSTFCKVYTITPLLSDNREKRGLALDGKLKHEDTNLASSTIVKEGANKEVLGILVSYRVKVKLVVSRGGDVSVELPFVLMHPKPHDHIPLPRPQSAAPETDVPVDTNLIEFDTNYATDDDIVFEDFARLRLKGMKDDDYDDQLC

[2] = biological target: T1, human sphingosine-1-phosphate receptor 1 (S1P1); experiment: Inhibition of cAMP production (HTRF cAMP HiRange), S1P1 CHO-K1 cells; assay type: cell-based; conditions: for Emax: CHO-K1, efficacy (SPAN) normalized to fingolimod, read-out: hS1P1 cAMP SPAN
Summary of the method: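 CHO-K1 cells stably co-expressing human S1P1 (C-terminal Prolink tag) and EA-β-arrestin2 were grown in AssayComplete Media 6 at 37° C. and 5% CO2, plated, and incubated overnight. Agonist-driven inhibition of intracellular cAMP was read by TR-FRET with the HTRF cAMP HiRange kit on a PheraStar reader. Potency is pEC50, and efficacy (SPAN) is normalized to fingolimod.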
Target sequence in this assay (P21453 whole entry, looked up, the tested form may be a part): as the sequence (P21453 whole entry, looked up, the tested form may be a part) above

[3] = β-arrestin2 recruitment, S1P1 CHO-K1 cells
[4] = inhibition of cAMP production, S1P1 CHO-K1 cells

Structure (SMILES)	Emax [1]	EC50 ([1]; β-arrestin2 recruitment, S1P1 CHO-K1 cells, read-out: hS1P1 B-arrestin2 pEC50 (converted))	Emax [2]	EC50 ([2]; inhibition of cAMP production, S1P1 CHO-K1 cells, read-out: hS1P1 cAMP pEC50 (converted))	hS1P1 B-arrestin2 pEC50 [1, 3]	hS1P1 cAMP pEC50 [2, 4]
CC(C)n1nnc2cc(-c3nc(-c4cn[nH]c4)no3)ccc21 [Compound 646, 1-(propan-2-yl)-5-[3-(1H-pyrazol-4-yl)-1,2,4-oxadiazol-5-yl]-1H-1,2,3-benzotriazole]	> 75%	> 10 µM	< 75%	> 0.316 µM		
Cc1cnccc1-c1noc(-c2ccc3c(c2)nnn3CC(C)(C)O)n1 [Compound 597, 2-methyl-1-{5-[3-(3-methylpyridin-4-yl)-1,2,4-oxadiazol-5-yl]-1H-1,2,3-benzotriazol-1-yl}propan-2-ol]					>5	>6.5
COc1ccccc1-c1cnc(-c2ccc3c(c2)nnn3C(C)C)nc1 [Compound 565, 1-isopropyl-5-(5-(2-methoxyphenyl)pyrimidin-2-yl)-1H-benzo[d][1,2,3]triazole]					>5	>6.5
Cc1cc(-c2nc(-c3ccc4c(c3)nnn4C(C)C)no2)cc(C)n1 [Compound 156, 5-(2,6-dimethylpyridin-4-yl)-3-(1-isopropyl-1H-benzo[d][1,2,3]triazol-5-yl)-1,2,4-oxadiazole]	> 75%		> 75%		>5	>6.5
FC(F)(F)c1cc(Br)ccc1-c1noc(-c2ccc3c(c2)nnn3C2CCCC2)n1 [Compound 114, 5-{3-[4-bromo-2-(trifluoromethyl)phenyl]-1,2,4-oxadiazol-5-yl}-1-cyclopentyl-1H-1,2,3-benzotriazole]	< 75%		< 75%		<5	<6.5
Cc1ccccc1-c1nc(-c2ccc3c(c2)nnn3C(C)(C)CO)no1 [Compound 609, 2-methyl-2-(5-(5-(o-tolyl)-1,2,4-oxadiazol-3-yl)-1H-benzo[d][1,2,3]triazol-1-yl)propan-1-ol]					<5	>6.5
CCCC1(CCC)CC(=O)c2cc(-c3nc(-c4cccnc4)no3)ccc2O1 [Compound 218, 2,2-dipropyl-6-[3-(pyridin-3-yl)-1,2,4-oxadiazol-5-yl]-3,4-dihydro-2H-1-benzopyran-4-one]					<5	<6.5
COc1ccccc1-c1noc(-c2ccc3c(c2)nnn3C2CCOCC2)n1 [Compound 231, 5-[3-(2-methoxyphenyl)-1,2,4-oxadiazol-5-yl]-1-(oxan-4-yl)-1H-1,2,3-benzotriazole]	< 75%		< 75%		<5	<6.5
CC(C)n1nnc2cc(-c3ncc(-c4ccccc4Br)s3)ccc21 [Compound 220, 5-(2-bromophenyl)-2-(1-isopropylbenzotriazol-5-yl)thiazole]					<5	<6.5
CC(C)n1nnc2cc(-c3nc4cccc(Br)c4o3)ccc21 [Compound 429, 7-bromo-2-(1-isopropyl-1H-benzo[d][1,2,3]triazol-5-yl)benzo[d]oxazole]					<5	<6.5
CCC1(CC)CC(=O)c2cc(-c3nc(-c4cnc[nH]4)no3)ccc2O1 [Compound 466, 6-(3-(1H-imidazol-5-yl)-1,2,4-oxadiazol-5-yl)-2,2-diethylchroman-4-one]					<5	<6.5
CC(C)n1nnc2cc(-c3nc(-c4ccc(COc5ccccc5)cc4)no3)ccc21 [Compound 49, 5-{3-[4-(phenoxymethyl)phenyl]-1,2,4-oxadiazol-5-yl}-1-(propan-2-yl)-1H-1,2,3-benzotriazole]					<5	<6.5
CCC1(CC)CC(=O)c2cc(-c3nc(-c4ccsc4)no3)ccc2O1 [Compound 468, 2,2-diethyl-6-(3-(thiophen-3-yl)-1,2,4-oxadiazol-5-yl)chroman-4-one]					>5	>6.5
CC1(C)CCC2(CC1)CC(=O)c1cc(-c3nc(-c4ccncc4)no3)ccc1O2 [Compound 254, 4′,4′-dimethyl-6-[3-(pyridin-4-yl)-1,2,4-oxadiazol-5-yl]-3,4-dihydrospiro[1-benzopyran-2,1′-cyclohexane]-4-one]	< 75%		< 75%		<5	>6.5
Cc1ccc2oc(-c3ccc4c(c3)nnn4CC(C)C)nc2c1 [Compound 437, 2-(1-isobutyl-1H-benzo[d][1,2,3]triazol-5-yl)-5-methylbenzo[d]oxazole]	< 75%		> 75%		>5	>6.5
N#Cc1cc(-c2nnc(-c3ccc4[nH]cnc4c3)o2)ccc1NCC1CC1 [Compound 357, 5-[5-(1H-1,3-benzodiazol-5-yl)-1,3,4-oxadiazol-2-yl]-2-[(cyclopropylmethyl)amino]benzonitrile]	> 75%		> 75%		>5	>6.5
COCC1(COC)CC(=O)c2cc(-c3nc(-c4ccncc4)no3)ccc2O1 [Compound 494, 2,2-bis(methoxymethyl)-6-[3-(pyridin-4-yl)-1,2,4-oxadiazol-5-yl]-3,4-dihydro-2H-1-benzopyran-4-one]					>5	<6.5
CCc1ccccc1-c1nc(-c2ccc3c(c2)nnn3CC(C)(C)CO)no1 [Compound 527, 3-(5-(5-(2-ethylphenyl)-1,2,4-oxadiazol-3-yl)-1H-benzo[d][1,2,3]triazol-1-yl)-2,2-dimethylpropan-1-ol]					<5	<6.5
CC(C)n1ncc2cc(-c3nc(-c4cccc5c4OCO5)no3)ccc21 [Compound 336, 3-(benzo[d][1,3]dioxol-4-yl)-5-(1-isopropyl-1H-indazol-5-yl)-1,2,4-oxadiazole]	< 75%		> 75%		>5	>6.5
COc1ccccc1-c1noc(-c2ccc3c(c2)ncn3C(C)C)n1 [Compound 373, 5-(1-isopropyl-1H-benzo[d]imidazol-5-yl)-3-(2-methoxyphenyl)-1,2,4-oxadiazole]					<5	<6.5
Cc1oc(-c2ccc3c(c2)nnn3C(C)C)nc1-c1ccc(Cl)cc1 [Compound 50, 5-[4-(4-chlorophenyl)-5-methyl-1,3-oxazol-2-yl]-1-(propan-2-yl)-1H-1,2,3-benzotriazole]	< 75%		< 75%		<5	<6.5
COc1ccccc1-c1nnc(-c2ccc3[nH]c(=O)oc3c2)o1 [Compound 349, 6-[5-(2-methoxyphenyl)-1,3,4-oxadiazol-2-yl]-2,3-dihydro-1,3-benzoxazol-2-one]	< 75%		< 75%		<5	>6.5
CC(C)n1nnc2cc(-c3nc(-c4ccccn4)co3)ccc21 [Compound 474, 1-(propan-2-yl)-5-[4-(pyridin-2-yl)-1,3-oxazol-2-yl]-1H-1,2,3-benzotriazole]	> 75%		> 75%		<5	<6.5
CC(C)n1ccc2cc(-c3noc(-c4ccccc4F)n3)ccc21 [Compound 387, 5-(2-fluorophenyl)-3-(1-isopropyl-1H-indol-5-yl)-1,2,4-oxadiazole]					>5	<6.5
CCC1(CC)CC(=O)c2cc(-c3nc(-c4cncc(S(N)(=O)=O)c4)no3)ccc2O1 [Compound 603, 5-(5-(2,2-diethyl-4-oxochroman-6-yl)-1,2,4-oxadiazol-3-yl)pyridine-3-sulfonamide]					>5	>6.5
N#Cc1cc(-c2nnc(-c3ccc4c(c3)ncn4CCO)o2)ccc1NCC(F)F [Compound 578, 2-[(2,2-difluoroethyl)amino]-5-{5-[1-(2-hydroxyethyl)-1H-1,3-benzodiazol-5-yl]-1,3,4-oxadiazol-2-yl}benzonitrile]					<5	<6.5
N#Cc1cc(-c2nnc(-c3ccc4[nH]ncc4c3)o2)ccc1NCCF [Compound 353, 2-[(2-fluoroethyl)amino]-5-[5-(1H-indazol-5-yl)-1,3,4-oxadiazol-2-yl]benzonitrile]	> 75%		> 75%		>5	>6.5
CC(C)n1nnc2cc(-c3nc(-c4nccn4C)no3)ccc21 [Compound 569, 5-[3-(1-methyl-1H-imidazol-2-yl)-1,2,4-oxadiazol-5-yl]-1-(propan-2-yl)-1H-1,2,3-benzotriazole]	< 75%		> 75%		<5	<6.5
C=CCNc1ccc(-c2nc(-c3ccc4[nH]ccc4c3)no2)cc1C#N [Compound 208, 5-(3-(1H-indol-5-yl)-1,2,4-oxadiazol-5-yl)-2-(allylamino)benzonitrile]	> 75%		> 75%		>5	>6.5
Cc1cccc(-c2nc(-c3ccc4c(c3)nnn4C3CCCC3)no2)c1 [Compound 273, 3-(1-cyclopentyl-1H-benzo[d][1,2,3]triazol-5-yl)-5-(m-tolyl)-1,2,4-oxadiazole]					<5	<6.5
